These results are taken from patent publication US4943580A, “Anti-histaminic benzimidazole, imidazopyridine and purine derivatives” (Janssen Pharmaceutica N.V., priority 1989, dated 1990).

The test system of the experiment is compound 48/80-induced lethality. The experiment in a line: Protection of rats from compound 48/80-induced lethality. Format: in vivo, rat (male, inbred Wistar strain). The note with it: Rattus norvegicus; rats treated subcutaneously or orally 1 hour before compound 48/80 0.5 mg/kg intravenously; 50% of animals protected; survival after 4 hours; read-out: Compound 48/80 lethality test in rats-ED50. An excerpt:
Protection of rats from compound […] lethality
Compound 48/80, a mixture of oligomers obtained by condensation of 4-methoxy-N-methylbenzeneethanamine and formaldehyde has been described as a potent histamine releasing agent (Int. Arch. Allergy, 13, 336 (1958)). The protection from compound 48/80-induced lethal circulatory collapse appears to be a simple way of evaluating quantitatively the antihistaminic activity of test compounds. Male rats of an inbred Wistar strain, weighing 240-260 g were used in the experiment. After overnight starvation the rats were transferred to conditioned laboratories (temp.=[…], relative humidity=65±5%). The rats were treated subcutaneously or orally with a test compound or with the solvent (NaCl solution, 0.9%). One hour after treatment there was injected intravenously compound 48/80, freshly dissolved in water, at a dose of 0.5 mg/kg (0.2 ml/100 g of body weight). In control experiments, wherein 250 solvent-treated animals were injected with the standard dose of compound 48/80, not more than 2.8% of the animals survived after 4 hours. Survival after 4 hours is therefore considered to be a safe criterion of a protective effect of drug administration. Said ED50 -values are the values in mg/kg body weight at which the tested compounds protect 50% of the tested animals against compound 48/80-induced lethality.

For the molecule `CCOCCn1c(NC2CCN(CCc3ccc(OC)cc3)CC2)nc2cccnc21` [Compound 45], the ED50 worked out at 0.02 mg/kg. In the case of `CCOCCn1c(NC2CCN(CCc3c(C)nc4ccccn4c3=O)CC2)nc2cccnc21` [Compound 46] it was 0.01 mg/kg; in that of `CCOCCn1c(CC2CCN(CCc3ccc(OC)cc3)CC2)nc2cccnc21` [Compound 59], 0.02 mg/kg; in that of `CCOCCn1c(NC2CCN(CCCC(C)=O)CC2)nc2cccnc21` [Compound 61], 0.04 mg/kg. In the case of `CCOCCn1c(CC2CCN(CCc3c(C)nc4ccccn4c3=O)CC2)nc2cccnc21` [Compound 62] it was 0.04 mg/kg; in that of `CCOCCn1c(NC2CCN(CCCOc3ccc(F)cc3)CC2)nc2cccnc21` [Compound 63], 0.04 mg/kg; in that of `CCOCCn1c(NC2CCN(CCc3c(C)nc4sccn4c3=O)CC2)nc2cccnc21` [Compound 64], 0.02 mg/kg. The figure for `CCOCCn1c(NC2CCN(CCCC(=O)c3ccc(F)cc3)CC2)nc2cccnc21` [Compound 65] is 0.02 mg/kg; for `CCOCCn1c(NC2CCN(CCc3scnc3C)CC2)nc2cccnc21` [Compound 67] it is 0.02 mg/kg. Consider `CCOCCn1c(NC2CCN(CCn3c(=O)[nH]c4ccccc4c3=O)CC2)nc2cccnc21` [Compound 68], for which the ED50 was determined as 0.04 mg/kg.

With `CCOCCn1c(NC2CCN(CCc3c(C)nc4n(c3=O)CCCC4)CC2)nc2cccnc21` [Compound 70], the ED50 was found to be 0.04 mg/kg. With `CCOCCn1c(CC2CCN(CCn3c(=O)[nH]c4ccccc43)CC2)nc2cccnc21` [Compound 80], the ED50 amounted to 0.02 mg/kg. Turning to `CCOCCn1c(NC2CCN(CCc3cc4ccccc4oc3=O)CC2)nc2cccnc21` [Compound 82], the ED50 turned out to be 0.04 mg/kg. In the case of `CCOCCn1c(NC2CCN(CCSc3ccccc3)CC2)nc2cccnc21` [Compound 100, 3-(2-ethoxyethyl)-N-[1-[2-(phenylthio)ethyl]-4-piperidinyl]-3H-imidazo [4,5-b]-pyridin-2-amine] it was 0.04 mg/kg.

Turning to `CCOCCn1c(NC2CCN(C)CC2)nc2cccnc21` [Compound 108, 3-(2-ethoxyethyl)-N-(1-methyl-4-piperidinyl)-3H-imidazo[4,5-b]pyridin-2-amine], the ED50 came out at 0.04 mg/kg.

For the molecule `CCOCCn1c(NC2CCN(CC)CC2)nc2cccnc21` [Compound 115], the ED50 was found to be 0.04 mg/kg. In the case of `CCOCCn1c(CC2CCN(C)CC2)nc2cccnc21` [Compound 126] it was 0.04 mg/kg; in that of `CCOCCn1c(CC2CCN(CCNc3ncccn3)CC2)nc2cccnc21` [Compound 131, N-[2-[4-[[3-(2-ethoxyethyl)-3H-imidazo[4,5-b]pyridin-2-yl]methyl]-1-piperidinyl]ethyl]-2-pyrimidinamine], 0.02 mg/kg. For `CCOCCn1c(NC2CCN(CCNc3ncccn3)CC2)nc2cccnc21` [Compound 132, 3-(2-ethoxyethyl)-N-[1-[2-(2-pyrimidinylamino)ethyl]-4-piperidinyl]-3H-imidazo[4,5-b]pyridin-2-amine], the ED50 was 0.01 mg/kg.

Turning to `CCOCCn1c(NC2CCN(CCOc3ncccn3)CC2)nc2cccnc21` [Compound 133, 3-(2-ethoxyethyl)-N-[1-[2-(2-pyrimidinyloxy)ethyl]-4-piperidinyl]-3H-imidazo-[4,5-b]pyridin-2-amine], the ED50 turned out to be 0.02 mg/kg. The figure for `CCOCCn1c(CC2CCN(CCOc3ncccn3)CC2)nc2cccnc21` [Compound 134, 3-(2-ethoxyethyl)-2-[[1-[2-(2-pyrimidinyloxy)ethyl]4-piperidinyl]methyl]-3H-imidazo-[4,5-b]pyridine] is 0.005 mg/kg. The figure for `CCOCCn1c(NC2CCN(CCNc3nc4cnccc4[nH]3)CC2)nc2cccnc21` [Compound 141, 3-(2-ethoxyethyl)-N-[1-[2-[(1H-imidazo[4,5-c]pyridin-2-yl)amino]ethyl]-4-piperidinyl]-3H-imidazo[4,5-b]pyridin-2-amine] is 0.02 mg/kg; for `CCOCCn1c(NC2CCN(CCNC(=O)c3ccoc3)CC2)nc2cccnc21` [Compound 142, N-[2-[4-[[3-(2-ethoxyethyl)-3H-imidazo[4,5-b]pyridin-2-yl]amino]-1-piperidinyl]ethyl]-3-furancarboxamide] it is 0.04 mg/kg. In the case of `CCOCCn1c(NC2CCN(CCNC(=O)c3cccn3C)CC2)nc2cccnc21` [Compound 143, N-[2-[4-[[3-(2-ethoxyethyl)-3H-imidazo[4,5-b]pyridin-2-yl]amino]-1-piperidinyl]ethyl]-1-methyl-1H-pyrrole-2-carboxamide] it was 0.02 mg/kg; in that of `CCOCCn1c(CC2CCN(CCNC(=O)c3nccs3)CC2)nc2cccnc21` [Compound 144, N-[2-[4-[[3-(2-ethoxyetyyl)-3H-imidazo[4,5-b]pyridin-2-yl]methyl]-1-piperidinyl]ethyl]-2-thiazolecarboxamide], 0.02 mg/kg. `CCOCCn1c(NC2CCN(CCc3ccccn3)CC2)nc2cccnc21` [Compound 151, 3-(2-ethoxyethyl)-N-[1-[2-(2-pyridinyl)ethyl]-4-piperidinyl]-3H-imidazo-[4,5-b]pyridin-2-amine]: the ED50 stood at 0.02 mg/kg.

As to `CCOCCn1c(CC2CCN(CCc3ccccn3)CC2)nc2cccnc21` [Compound 152, 3-(2-ethoxyethyl)-2-[[1-[2-(2-pyridinyl)ethyl]-4-piperidinyl]methyl]-3H-imidazo-[4,5-b]pyridine], the ED50 turned out to be 0.005 mg/kg.
